Drawing on patent US12534465B2, “5H-pyrrolo[3,2-d]pyrimidine-2,4-diamino compounds and antibody conjugates thereof” (SUTRO BIOPHARMA, INC., priority 2019, dated 2026), this text covers EC50 for three compounds.

The target of one assay is T1, human TLR8 (Homo sapiens, UniProt Q9NR97).
T1 construct: host or cells: HEK293
T1 sequence (Q9NR97 27-1041): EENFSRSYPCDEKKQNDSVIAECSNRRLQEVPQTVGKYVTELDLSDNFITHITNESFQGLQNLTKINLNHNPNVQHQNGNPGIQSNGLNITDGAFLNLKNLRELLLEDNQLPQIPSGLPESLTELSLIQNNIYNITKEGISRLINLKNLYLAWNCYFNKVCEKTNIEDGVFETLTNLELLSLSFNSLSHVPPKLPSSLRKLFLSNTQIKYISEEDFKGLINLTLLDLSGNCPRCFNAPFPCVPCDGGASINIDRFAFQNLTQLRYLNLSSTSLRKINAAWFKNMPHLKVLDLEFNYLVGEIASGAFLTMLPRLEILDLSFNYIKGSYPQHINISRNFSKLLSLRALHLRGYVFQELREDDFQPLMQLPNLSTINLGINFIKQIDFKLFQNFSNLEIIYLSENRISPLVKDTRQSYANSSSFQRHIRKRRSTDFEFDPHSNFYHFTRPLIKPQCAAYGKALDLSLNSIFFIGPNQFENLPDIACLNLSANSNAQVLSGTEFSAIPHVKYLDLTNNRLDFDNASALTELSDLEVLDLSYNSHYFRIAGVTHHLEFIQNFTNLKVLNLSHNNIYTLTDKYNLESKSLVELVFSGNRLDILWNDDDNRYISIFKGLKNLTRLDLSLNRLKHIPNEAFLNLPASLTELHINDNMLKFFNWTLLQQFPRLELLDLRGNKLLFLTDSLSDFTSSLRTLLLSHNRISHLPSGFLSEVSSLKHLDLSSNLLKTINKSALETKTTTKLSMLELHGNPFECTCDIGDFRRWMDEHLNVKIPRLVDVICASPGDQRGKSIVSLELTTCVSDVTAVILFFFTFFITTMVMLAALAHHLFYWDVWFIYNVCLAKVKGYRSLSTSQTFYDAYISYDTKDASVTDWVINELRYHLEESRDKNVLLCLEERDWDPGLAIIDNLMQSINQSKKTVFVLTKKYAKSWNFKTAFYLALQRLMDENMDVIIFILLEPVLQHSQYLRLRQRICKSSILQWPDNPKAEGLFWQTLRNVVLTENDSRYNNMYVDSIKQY
As to the kind of experiment: HEK293-humanTLR8 SEAP reporter assay (Example 8). Particulars: HEK293-hTLR8 SEAP reporter cells, 24 hrs. Type of assay: cell-based. How it is done:
(§1) In this example, the in vitro activity of compounds to activate human TLR7 (or human TLR8 or mouse TLR7) pathway was evaluated on HEK293 reporter cells transfected with human TLR7 (or human TLR8 or mouse TLR7) and an inducible SEAP (secreted embryonic alkaline phosphatase) reporter gene. The SEAP reporter gene is placed under the control of the IFN-β minimal promoter fused to five NF-κB and AP-1-binding sites. Stimulation with a TLR7 agonist activates NF-κB and AP-1 which induces the production of SEAP. Levels of SEAP were determined by HEK-Blue Detection medium.
(§2) The in vitro activity of compounds on TLR7 (human and mouse) and TLR8 (human only) reporter cell lines was assessed as follows. 5-(2-methoxy-4-(piperazin-1-ylmethyl)benzyl)-N4-pentyl-5H-pyrrolo[3,2-d]pyrimidine-2,4-diamine (Compound 1) is a compound used for comparison and has the structure shown below:
(§3) HEK293-humanTLR7 (hTLR7), HEK293-mouseTLR7 (mTLR7) and HEK293-humanTLR8 (hTLR8) reporter cell lines were purchased from Invivogen and cell lines were maintained in the manufacturer's recommended culture medium with required supplemental antibiotics. On the day of assay, the cells were harvested with Accutase and counted by the Vi-CELL Cell Viability Analyzers. Cells were resuspended in HEK blue detection medium and a total of 10,000 cells were seeded in each well of a 384-well flat bottom plate. Serial dilutions of test compounds (1:4 serial dilution starting from 5 μM) were added into treatment wells and assay plates were cultured at 37° C. in a CO2 incubator for 24 hrs. The plates were then read by spectrophotometry at 640 nm. Data was fitted with non-linear regression analysis, using a log(inhibitor) vs. response-variable slope, 3-parameter fit with GraphPad Prism. There result was reported in Table 1 as EC50 (the midpoint of the curve, or concentration at which 50% of the maximum effect was observed).
A general note: In a reporter assay the amount or activity of a reporter protein is the signal.

The target of a further assay is T2, human TLR7 (Homo sapiens, UniProt Q9NYK1).
T2 construct: host or cells: HEK293
T2 sequence (Q9NYK1 27-1049): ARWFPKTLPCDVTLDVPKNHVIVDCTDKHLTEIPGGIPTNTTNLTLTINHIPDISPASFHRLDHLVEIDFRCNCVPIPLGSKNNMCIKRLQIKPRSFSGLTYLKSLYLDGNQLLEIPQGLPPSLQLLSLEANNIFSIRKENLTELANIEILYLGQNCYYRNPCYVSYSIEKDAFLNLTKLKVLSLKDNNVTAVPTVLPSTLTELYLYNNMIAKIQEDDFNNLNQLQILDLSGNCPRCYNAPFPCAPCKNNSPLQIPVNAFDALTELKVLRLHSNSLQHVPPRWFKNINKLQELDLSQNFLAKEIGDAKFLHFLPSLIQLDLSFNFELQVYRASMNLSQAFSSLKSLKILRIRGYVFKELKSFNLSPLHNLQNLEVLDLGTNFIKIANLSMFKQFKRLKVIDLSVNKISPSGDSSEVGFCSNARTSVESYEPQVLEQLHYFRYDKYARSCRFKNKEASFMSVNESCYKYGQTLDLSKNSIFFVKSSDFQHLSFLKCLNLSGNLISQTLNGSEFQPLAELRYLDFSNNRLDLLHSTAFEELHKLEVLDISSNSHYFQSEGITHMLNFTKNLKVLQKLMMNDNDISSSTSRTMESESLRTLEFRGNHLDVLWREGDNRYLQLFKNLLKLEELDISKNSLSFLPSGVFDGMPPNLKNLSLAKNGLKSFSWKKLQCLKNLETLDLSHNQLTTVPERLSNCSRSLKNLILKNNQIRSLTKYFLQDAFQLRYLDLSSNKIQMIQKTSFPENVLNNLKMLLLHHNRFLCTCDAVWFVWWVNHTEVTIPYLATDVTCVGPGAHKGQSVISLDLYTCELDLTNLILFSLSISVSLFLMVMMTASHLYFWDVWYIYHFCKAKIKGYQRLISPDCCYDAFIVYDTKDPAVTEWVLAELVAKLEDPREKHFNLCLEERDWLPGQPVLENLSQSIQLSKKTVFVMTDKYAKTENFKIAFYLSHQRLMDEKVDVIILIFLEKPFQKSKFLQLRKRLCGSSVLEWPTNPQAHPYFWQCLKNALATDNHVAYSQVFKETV
As to the kind of experiment: HEK293-humanTLR7 SEAP reporter assay (Example 8). Type of assay: cell-based. Particulars: HEK293-hTLR7 SEAP reporter cells, 24 hrs. How it is done: as §1, §2, §3

The term EC50 denotes the midpoint of the concentration-response curve. The low end stands for higher potency in that assay, the high end for lower potency in that assay.

Turning to `CCCCCNc1nc(N)nc2ccn(Cc3ccc(CN4CCNCC4)cc3OC)c12` [Compound 1, 5-(2-methoxy-4-(piperazin-1-ylmethyl)benzyl)-N4-pentyl-5H-pyrrolo[3,2-d]pyrimidine-2,4-diamine, reference compound], the EC50 amounted to 338 nM on human TLR8 and 1.9 nM at human TLR7.
The like results for `CCCCCNc1nc(N)nc2ccn(Cc3ccc(CN4CC(NC)C4)cc3OC)c12` [Compound 2, 5-(2-methoxy-4-((3-(methylamino)azetidin-1-yl)methyl)benzyl)-N4-pentyl-5H-pyrrolo[3,2-d]pyrimidine-2,4-diamine] were, in that order, 367 nM and 1.6 nM.
The like results for `CCCCCNc1nc(N)nc2ccn(Cc3ccc(CN4CC5(CNCCO5)C4)cc3OC)c12` [Compound 10, 5-[[2-methoxy-4-(5-oxa-2,8-diazaspiro[3.5]nonan-2-ylmethyl)phenyl]methyl]-N4-pentyl-pyrrolo[3,2-d]pyrimidine-2,4-diamine] were, in that order, 342 nM and 1.5 nM.
